Read-outs that look alike come from different tables or passages of the source.
Assays:
[1] = target: T1, zebrafish Ahr2 (Danio rerio, UniProt Q9YGV3); type: cell-based; details: exposures up to 30 μM
T1 sequence (Q9YGV3 1-1027): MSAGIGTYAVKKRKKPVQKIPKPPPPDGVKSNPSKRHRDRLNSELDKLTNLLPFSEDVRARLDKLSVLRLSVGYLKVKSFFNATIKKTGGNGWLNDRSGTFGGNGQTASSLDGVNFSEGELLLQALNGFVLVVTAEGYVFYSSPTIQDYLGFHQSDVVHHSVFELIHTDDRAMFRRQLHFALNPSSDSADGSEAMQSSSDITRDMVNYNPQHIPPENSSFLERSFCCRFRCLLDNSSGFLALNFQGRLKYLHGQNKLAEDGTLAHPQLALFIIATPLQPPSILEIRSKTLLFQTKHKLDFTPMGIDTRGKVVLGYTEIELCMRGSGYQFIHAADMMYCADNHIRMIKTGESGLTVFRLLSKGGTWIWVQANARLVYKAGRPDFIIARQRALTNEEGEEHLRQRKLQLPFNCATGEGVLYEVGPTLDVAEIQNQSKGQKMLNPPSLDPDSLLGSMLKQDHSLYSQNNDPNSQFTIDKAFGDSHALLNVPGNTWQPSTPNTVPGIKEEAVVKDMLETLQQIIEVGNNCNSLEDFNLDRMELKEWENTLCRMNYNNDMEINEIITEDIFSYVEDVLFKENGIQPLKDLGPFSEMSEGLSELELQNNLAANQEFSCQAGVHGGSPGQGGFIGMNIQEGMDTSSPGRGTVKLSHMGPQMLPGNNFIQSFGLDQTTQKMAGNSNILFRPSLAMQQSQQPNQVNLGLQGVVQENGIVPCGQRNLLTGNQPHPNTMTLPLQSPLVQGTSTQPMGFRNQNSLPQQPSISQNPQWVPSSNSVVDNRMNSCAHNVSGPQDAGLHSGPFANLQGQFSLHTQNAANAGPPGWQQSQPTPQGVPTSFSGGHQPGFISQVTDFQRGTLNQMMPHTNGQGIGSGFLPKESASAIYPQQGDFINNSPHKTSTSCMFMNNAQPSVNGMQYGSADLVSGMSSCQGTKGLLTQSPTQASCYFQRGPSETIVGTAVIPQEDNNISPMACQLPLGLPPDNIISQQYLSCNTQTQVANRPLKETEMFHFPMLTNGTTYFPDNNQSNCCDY

[2] = target: T2, human AHR (Homo sapiens, UniProt P35869); details: exposures up to 30 μM
T2 sequence (P35869 11-848): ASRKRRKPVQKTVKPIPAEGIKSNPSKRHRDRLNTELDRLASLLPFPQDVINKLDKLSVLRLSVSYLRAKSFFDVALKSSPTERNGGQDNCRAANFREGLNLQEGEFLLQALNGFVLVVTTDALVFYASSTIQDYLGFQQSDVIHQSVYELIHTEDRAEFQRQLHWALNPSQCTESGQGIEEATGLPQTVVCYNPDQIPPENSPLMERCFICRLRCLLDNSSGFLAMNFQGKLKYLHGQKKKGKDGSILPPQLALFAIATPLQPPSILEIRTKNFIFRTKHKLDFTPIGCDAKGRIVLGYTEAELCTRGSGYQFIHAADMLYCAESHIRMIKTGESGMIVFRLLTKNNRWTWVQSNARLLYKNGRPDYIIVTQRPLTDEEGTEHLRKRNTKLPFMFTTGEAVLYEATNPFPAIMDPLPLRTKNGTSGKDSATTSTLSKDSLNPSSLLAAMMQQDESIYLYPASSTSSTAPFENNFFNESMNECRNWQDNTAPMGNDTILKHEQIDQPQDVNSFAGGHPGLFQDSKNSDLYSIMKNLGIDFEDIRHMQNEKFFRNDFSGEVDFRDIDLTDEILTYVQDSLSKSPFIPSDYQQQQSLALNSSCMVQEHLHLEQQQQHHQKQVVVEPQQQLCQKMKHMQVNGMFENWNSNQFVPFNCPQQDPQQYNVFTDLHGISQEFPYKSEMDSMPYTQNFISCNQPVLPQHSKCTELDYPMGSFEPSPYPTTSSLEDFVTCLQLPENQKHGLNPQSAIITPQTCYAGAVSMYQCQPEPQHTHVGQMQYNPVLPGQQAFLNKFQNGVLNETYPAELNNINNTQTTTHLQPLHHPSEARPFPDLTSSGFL

[3] = system: cyp1a^cms-gfp zebrafish (EGFP under cyp1a promotor)
[4] = system: zebrafish embryos; assay: Zebrafish developmental toxicity screening, wild-type fish; type: in vivo, zebrafish (Danio rerio); details: for EC80: nominal concentration causing morphologic malformations in 80% of WT zebrafish; for concentration up to which not toxic in zebrafish: data not shown
[5] = system: cyp1a^osu4 zebrafish; type: in vivo; details: TCDD, cyp1a^osu4 fish, 1 h exposure at 6 to 8 hpf
[6] = system: cyp1a^osu5 zebrafish; type: in vivo; details: TCDD, cyp1a^osu5 fish; unit not given
[7] = system: Cyp1b1^wh4 zebrafish; type: in vivo; details: TCDD
[8] = Retene body burden in zebrafish tissue; type: in vivo
[9] = system: zebrafish embryos; assay: Window of susceptibility developmental toxicity exposures; type: in vivo
[10] = target: T2, human AHR
[11] = system: Ahr2; details: ref Billiard et al. 2002; cited from earlier work
[12] = system: Ahr2 knockout (ahr2^hu3335) fish; details: ref Scott et al. 2011; Wilson et al. 2022; cited from earlier work
[13] = Larval metabolite analysis by LC-IM-MS; details: zebrafish exposed to 26 µM retene

c1ccc2c(c1)cc1ccc3cccc4ccc2c1c34 [Benzo[a]pyrene]
Ahr2 activation in zebrafish ZF-4 luciferase reporter cells [1]: activator | AHR activation in human HuH-7 luciferase reporter cells [2]: activator

c1ccc2cc3c(cc2c1)-c1cccc2cccc-3c12 [Benzo[k]fluoranthene, Benzo(k)fluoranthene]
Ahr2 activation in zebrafish ZF-4 luciferase reporter cells [1]: direct AHR activators | AHR activation in human HuH-7 luciferase reporter cells [2]: direct AHR activators | EGFP expression at 23 hpf / early hours ([3]; cyp1a^cms-gfp fish, retene 26 μM, benzo[k]fluoranthene 8.9 μM): strong widespread EGFP expression

c1ccc2c3c(ccc2c1)-c1cccc2cccc-3c12 [Benzo[j]fluoranthene]
Ahr2 activation in zebrafish ZF-4 luciferase reporter cells [1]: direct AHR activators | EC80 [4]: could not be determined | AHR activation in human HuH-7 luciferase reporter cells [2]: direct AHR activators

Clc1cc2c(cc1Cl)Oc1cc(Cl)c(Cl)cc1O2 [TCDD, 2,3,7,8-Tetrachlorodibenzo-p-dioxin]
BMC50 [5]: 0.41 ± 0.07 nM | BMC [6]: 0.56 ± 0.13 | change in toxicity versus 5D fish [7]: no change in toxicity

Cc1cccc2c1ccc1ccccc12 [1-methylphenathrene, 1-methylphenanthrene]
concentration up to which not toxic in zebrafish [4]: > 100 µM

O=C1c2ccccc2C(=O)c2c1ccc1ccccc21 [Benzanthraquinone]
Ahr2 activation in zebrafish ZF-4 luciferase reporter cells [1]: direct AHR activators | AHR activation in human HuH-7 luciferase reporter cells [2]: direct AHR activators

c1ccc2c(c1)-c1cccc3c1c-2cc1ccccc13 [Benzo[b]fluoranthene]
Ahr2 activation in zebrafish ZF-4 luciferase reporter cells [1]: direct AHR activators | concentration up to which not toxic in zebrafish [4]: > 100 µM | AHR activation in human HuH-7 luciferase reporter cells [2]: direct AHR activators

Cc1cccc2c1ccc1cc(C(C)C)ccc12 [Retene, 1-methyl-7-isopropylphenanthrene]
Ahr2 activation in zebrafish ZF-4 luciferase reporter cells [1]: no significant activation | Ahr2 activation in zebrafish ZF-4 luciferase reporter cells ([1]; listed as retene): do not respond | increase in body burden from 12 to 24 hpf ([8]; 30 μM retene from 6 hpf): greater than 3 fold | tissue burden at 48 hpf ([8]; 30 μM retene from 6 hpf): decreased to near-baseline | 24 hpf body burden ([8]; static exposure to 30 μM retene from 6 hpf): 31 ng/fish | BMC50 ([9]; exposure window 6 to 48 hpf, screened at 120 hpf): 52 ± 4 µM | developmental toxicity response ([9]; exposure window 48 to 120 hpf): little response | AHR activation in human HuH-7 luciferase reporter cells [2]: minimal reporter activity | effect of supplementation with human liver s9 on reporter activity [10]: did not lead to an increase in reporter activity | EGFP expression at 23 hpf / early hours ([3]; zebrafish, in vivo): control-like EGFP expression | times less strong at binding Ahr2 than 1-methylphenanthrene [11]: 3 × | times less strong at binding Ahr2 than benzo[b]fluoranthene [11]: 73 × | Ahr2 dependence of toxicity in developing zebrafish [12]: Ahr2 dependent toxicity | retene metabolites in tissue extracts at 12 and 24 hpf [13]: No retene metabolites were detected

O=c1c2ccccc2oc2ccccc12 [Xanthone]
EC80 [4]: 52 µM

Reference: publication PMC11514837 (Toxicological Sciences, 2024)
